Test results as given in patent publication US11654097B2, “Peptide having activities of skin whitening and uses thereof” (CAREGEN CO., LTD., priority 2019, dated 2023).

Columns and labels:
[1] = test system: Mlph; assay: Expression of melanin production-associated gene (RT-PCR) in B16F10 cells; assay type: cell-based, mouse; settings: B16F10, 200 ng/ml α-MSH, peptide 10-200 μM, 72 hours
Method: (§1) A mouse melanoma cell B16F10 was seeded in a 6-well plate at a density of 5×10^4 cells/well, followed by incubation for 16 hours. Thereafter, the culture medium was replaced by a medium supplemented with 2% serum, and then 200 ng/ml of α-MSH was added thereto, together with each peptide of an amino acid sequence of SEQ ID NO: 1, 2, or 3 at a concentration of 10 μM, 50 μM, 100 μM, or 200 μM, respectively, followed by incubation for 72 hours. mRNAs were extracted from the cultured cells, and the extracted mRNAs were reverse transcribed using a cDNA synthesis kit & PCR pre-mix (Intron, Korea), thereby synthesizing cDNA, respectively. Thereafter, a polymerase chain reaction (PCR) was carried out using each cDNA and Rab27a, Melanophilin (Mlph), myosin VA, MITF, Tyrosinase, and TRP1 primers. Moreover, a control, a negative control, and a positive control were used in the same manner as in Example 2, and nucleotide sequences of the primers used herein are the same as in Table 3 below.

[2] = test system: tyrosinase; assay: as above; assay type: cell-based, mouse; settings: B16F10, 200 ng/ml α-MSH, peptide 10-200 μM, 72 hours
Method: as §1

[3] = test system: MITF; assay: as above; assay type: cell-based, mouse; settings: B16F10, 200 ng/ml α-MSH, peptide 10-200 μM, 72 hours
Method: as §1

[4] = molecular target: T1, tyrosinase (Mus musculus, UniProt P11344); assay: Inhibitory effect on tyrosinase activity in lysate of treated B16F10 cells (L-DOPA); assay type: cell-based; settings: B16F10, 200 ng/ml α-MSH, peptide 1-160 μM, 72 hours, absorbance at 475 nm
T1 construct: The cells were lysed by adding a 0.1 M sodium phosphate buffer (pH 6.8, lysis buffer) containing 1% triton X-100; endogenous in cells; host or cells: B16F10 mouse melanoma cells stimulated with alpha-MSH
T1 sequence (P11344 19-533): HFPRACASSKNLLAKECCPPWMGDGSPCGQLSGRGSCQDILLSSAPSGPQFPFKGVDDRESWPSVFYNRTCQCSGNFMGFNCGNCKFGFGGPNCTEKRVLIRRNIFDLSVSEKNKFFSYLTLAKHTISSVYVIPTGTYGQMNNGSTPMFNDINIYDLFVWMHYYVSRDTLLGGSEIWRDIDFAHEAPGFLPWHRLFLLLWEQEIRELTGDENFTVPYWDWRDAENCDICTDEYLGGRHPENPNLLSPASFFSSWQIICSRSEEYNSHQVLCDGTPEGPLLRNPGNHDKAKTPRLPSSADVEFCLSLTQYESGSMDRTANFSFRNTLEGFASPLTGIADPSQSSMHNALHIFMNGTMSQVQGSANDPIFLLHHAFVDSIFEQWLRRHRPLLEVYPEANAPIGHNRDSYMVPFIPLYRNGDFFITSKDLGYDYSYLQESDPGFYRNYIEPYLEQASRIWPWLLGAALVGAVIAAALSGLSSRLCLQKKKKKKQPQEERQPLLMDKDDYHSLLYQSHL
Method: A mouse melanoma cell B16F10 was seeded in a 6-well plate at a density of 5×10^4 cells/well, followed by incubation for 16 hours. Thereafter, the culture medium was replaced by a medium supplemented with 2% serum, and then 200 ng/ml of α-MSH was added thereto, together with each peptide of an amino acid sequence of SEQ ID NO: 1, 2, or 3 at a concentration of 1 μM, 10 μM, 20 μM, 40 μM, 60 μM, 80 μM or 160 μM, respectively, followed by incubation for 72 hours. The 6-well plate was placed on ice, and then washed with cold PBS. The cells were lysed by adding a 0.1 M sodium phosphate buffer (pH 6.8, lysis buffer) containing 1% triton X-100. Thereafter, the cells in the well plate were scraped, and collected in a 1.5 ml tube, followed by vortexing. Centrifugation was carried out at 15,000 rpm for 10 minutes to obtain a supernatant. Thereafter, proteins in the supernatant was quantified to adjust the protein content at a predetermined amount. A buffer was added thereto, and total 90 μl of the sample was dispensed in a 96-well plate.
Thereafter, 20 μL of 10 mM L-DOPA was added to each sample, and incubated at 37° C. for 1 hour. Then, absorbance at 475 nm was measured. In addition, an untreated group (Con) was used as a control, and only α-MSH-treated group as a negative control and Arbutin (200 μM or 500 μM) and α-MSH-treated group as a positive control were used.

[5] = test system: tyrosinase; assay: Expression of melanin production-associated protein (Western blotting) in B16F10 cells; assay type: cell-based, mouse; settings: B16F10, 200 ng/ml α-MSH, peptide 10-200 μM, 72 hours
Method: (§2) A mouse melanoma cell B16F10 was seeded in a 6-well plate at a density of 5×10^4 cells/well, followed by incubation for 16 hours. Thereafter, the culture medium was replaced by a medium supplemented with 2% serum, and then 200 ng/ml of α-MSH was added thereto, together with each peptide of an amino acid sequence of SEQ ID NO: 1, 2, or 3 at a concentration of 10 μM, 50 μM, 100 μM, or 200 μM, respectively, followed by incubation for 72 hours. Thereafter, the cultured cells were lysed, and then subjected to Western blotting using antibodies (santacruz biotechnology, USA) against Mlph, Rab27a, Tyrosinase, MITF, and TRP-1. In addition, a control, a negative control, and a positive control were used in the same manner as in Example 2.

[6] = test system: MITF; assay: as above; assay type: cell-based, mouse; settings: B16F10, 200 ng/ml α-MSH, peptide 10-200 μM, 72 hours
Method: as §2

[7] = test system: TRP-1; assay: as above; assay type: cell-based, mouse; settings: B16F10, 200 ng/ml α-MSH, peptide 10-200 μM, 72 hours
Method: as §2

[8] = test system: mouse melanoma cell B16F10; assay: Inhibitory effect on melanin production in α-MSH-stimulated B16F10 cells; assay type: cell-based; settings: B16F10, 200 ng/ml α-MSH, peptide 10, 50, 100 or 200 μM, 72 hours, absorbance at 450 nm
Method: A mouse melanoma cell B16F10 was seeded in a 6-well plate at a density of 5×10^4 cells/well, followed by incubation for 16 hours. Thereafter, the culture medium was replaced by a medium supplemented with 2% serum, and then 200 ng/ml of α-melanocyte-stimulating hormones (α-MSH) was added thereto to stimulate melanin production, together with each peptide of an amino acid sequence of SEQ ID NO: 1, 2, or 3 at a concentration of 10 μM, 50 μM, 100 μM, or 200 μM, respectively, followed by incubation for 72 hours. Thereafter, the incubated cells were dissolved in 1 N NaOH, and absorbance at 450 nm was measured. Moreover, an untreated group (Con) was used as a control, and only an α-MSH-treated group as a negative control and a known skin-whitening agent Arbutin (200 μM, 500 μM) and an α-MSH-treated group as a positive control were used.

[9] = test system: myosin VA; assay: Expression of melanin production-associated gene (RT-PCR) in B16F10 cells; assay type: cell-based, mouse; settings: B16F10, 200 ng/ml α-MSH, peptide 10-200 μM, 72 hours
Method: as §1

[10] = test system: TRP1; assay: as above; assay type: cell-based, mouse; settings: B16F10, 200 ng/ml α-MSH, peptide 10-200 μM, 72 hours
Method: as §1

[11] = test system: Rab27a; assay: as above; assay type: cell-based, mouse; settings: B16F10, 200 ng/ml α-MSH, peptide 10-200 μM, 72 hours
Method: as §1

[12] = test system: Mlph; assay: Expression of melanin production-associated protein (Western blotting) in B16F10 cells; assay type: cell-based, mouse; settings: B16F10, 200 ng/ml α-MSH, peptide 10-200 μM, 72 hours
Method: as §2

[13] = test system: Rab27a; assay: as above; assay type: cell-based, mouse; settings: B16F10, 200 ng/ml α-MSH, peptide 10-200 μM, 72 hours
Method: as §2

Row | Substance | expression of Mlph gene [1] | expression of tyrosinase gene [2] | expression of MITF gene [3] | tyrosinase activity [4] | expression of Tyrosinase protein [5] | expression of MITF protein [6] | expression of TRP-1 protein [7] | melanin production [8] | expression of myosin VA gene [9] | expression of TRP1 gene [10] | expression of Rab27a gene [11] | expression of Mlph protein [12] | expression of Rab27a protein [13]
1 | FHFIPNW [SEQ ID NO: 2] | inhibited | inhibited | inhibited | inhibited in a concentration-dependent manner | inhibited | inhibited | inhibited | reduced in a concentration-dependent manner | – | – | – | – | –
2 | LRKRKRRFWVL [SEQ ID NO: 1] | – | inhibited | inhibited | inhibited in a concentration-dependent manner | inhibited | inhibited | – | reduced in a concentration-dependent manner | inhibited | inhibited | inhibited | inhibited | inhibited
3 | WPFLRP [SEQ ID NO: 3] | inhibited | inhibited | inhibited | inhibited in a concentration-dependent manner | inhibited | inhibited | – | reduced in a concentration-dependent manner | inhibited | inhibited | inhibited | inhibited | inhibited
